Here are results for 22 compounds from patent US20240199605A1, “SMALL MOLECULAR INHIBITORS OF NF-kB INDUCING KINASE” (Janssen Pharmaceutica NV, priority 2019, published 2024).

Assay [1] deals with p-IKKα levels in L363 (NIK translocated multiple myeloma) cells. Description: Effect of compounds on p-IKKα levels in L363 cells (AlphaLISA SureFire Ultra). As to conditions: Homo sapiens, L-363, 6 h, BAFF stimulated, MG132, 6 h, average of values, read-out: Assay 2 IC50. The class given is cell-based, human. The method, boiled down:
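Inhibition of p-IKKα (Ser176/180) read by AlphaLISA after 6 h, 37 °C compound exposure (11-point 1:3 series, 0.3% DMSO) of L363 cells pre-incubated overnight ± 250 ng/ml BAFF and plated ± BAFF ± 10 μM MG132. Normalised to BAFF/MG132/DMSO and unstimulated controls; IC50 by sigmoidal fitting, duplicates.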

Assay [2] deals with recombinant human NF-kappaB-inducing kinase (NIK/MAP3K14) (Homo sapiens (Human), UniProt Q99558). The experiment in a line: Inhibition of auto-phosphorylation of recombinant human NIK/MAP3K14 (AlphaScreen). As to conditions: NIK auto-phosphorylation, 5 μM ATP, 1 nM NIK, 2 h at 25° C.; average of values. The assay is classed as biochemical. Put shortly: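 AlphaScreen read-out (anti-phospho-IKK Ser176/180 antibody, Protein A acceptor and glutathione donor beads) of NIK auto-phosphorylation. Reaction: 1 nM enzyme, 5 μM ATP, Tris pH 7.5 buffer with Mg2+ and vanadate, 2 h at 25° C., final DMSO 0.7%. IC50 came from a sigmoidal curve fit.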
Sequence of recombinant human NF-kappaB-inducing kinase (NIK/MAP3K14) (Q99558 whole entry): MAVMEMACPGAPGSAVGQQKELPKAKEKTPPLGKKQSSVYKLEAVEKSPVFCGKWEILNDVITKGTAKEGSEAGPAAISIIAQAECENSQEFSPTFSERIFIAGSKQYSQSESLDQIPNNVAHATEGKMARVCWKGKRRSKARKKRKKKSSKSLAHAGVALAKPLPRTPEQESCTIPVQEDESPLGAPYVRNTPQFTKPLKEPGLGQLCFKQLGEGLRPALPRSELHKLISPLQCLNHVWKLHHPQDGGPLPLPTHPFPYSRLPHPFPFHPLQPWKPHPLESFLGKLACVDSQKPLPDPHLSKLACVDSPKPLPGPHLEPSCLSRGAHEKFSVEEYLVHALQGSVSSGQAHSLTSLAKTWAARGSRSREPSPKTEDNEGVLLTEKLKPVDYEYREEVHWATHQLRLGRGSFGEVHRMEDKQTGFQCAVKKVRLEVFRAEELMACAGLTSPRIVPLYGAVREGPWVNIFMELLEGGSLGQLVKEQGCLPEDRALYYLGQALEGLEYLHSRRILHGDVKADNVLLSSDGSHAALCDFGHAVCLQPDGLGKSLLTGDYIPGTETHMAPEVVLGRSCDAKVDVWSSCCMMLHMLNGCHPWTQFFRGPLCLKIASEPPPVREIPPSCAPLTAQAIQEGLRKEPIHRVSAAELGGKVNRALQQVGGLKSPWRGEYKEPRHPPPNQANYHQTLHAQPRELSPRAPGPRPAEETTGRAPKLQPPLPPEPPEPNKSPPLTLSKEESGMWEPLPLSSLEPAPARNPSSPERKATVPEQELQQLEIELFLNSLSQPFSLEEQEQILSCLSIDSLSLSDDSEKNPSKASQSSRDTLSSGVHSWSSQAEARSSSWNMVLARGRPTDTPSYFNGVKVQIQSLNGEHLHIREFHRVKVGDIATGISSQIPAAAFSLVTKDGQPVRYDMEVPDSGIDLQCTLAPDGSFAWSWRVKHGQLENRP

Regarding `CN1CC[C@@](O)(C#Cc2cccc(-c3ccc4ncnc(NC5COC5)c4n3)c2)C1=O` [Example 229, (R)-3-Hydroxy-1-methyl-3-((3-(4-(oxetan-3-ylamino)pyrido[3,2-d]pyrimidin-6-yl)phenyl)ethynyl)pyrrolidin-2-one], the IC50 turned out to be 1910 nM in assay [1] and 110 nM in assay [2].
As for `CN1CC[C@@](O)(C#Cc2cccc(-c3ncc4c(-c5cnn(CC(C)(C)O)c5)cnc(N)c4n3)c2)C1=O` [Example 123, (R)-3-[2-[3-[8-Amino-5-[1-(2-hydroxy-2-methyl-propyl)pyrazol-4-yl]pyrido[3,4-d]pyrimidin-2-yl]phenyl]ethynyl]-3-hydroxy-1-methyl-pyrrolidin-2-one], the IC50 in assay [1] is 4 nM; in assay [2], not above 0.5 nM.
As for `CN1CC[C@@](O)(C#Cc2cccc(-c3ccc4ncnc(-c5ccccc5)c4n3)c2)C1=O` [Example 257, (R)-3-Hydroxy-1-methyl-3-((3-(4-phenylpyrido[3,2-d]pyrimidin-6-yl)phenyl)ethynyl)pyrrolidin-2-one], the IC50 in assay [1] stood at 2460 nM; in assay [2], 44 nM.
`Cc1nc(-c2cccc(C#C[C@]3(O)CCc4cccnc43)c2)nc2c(N)nccc12` [Example 60, (R)-7-((3-(8-Amino-4-methylpyrido[3,4-d]pyrimidin-2-yl)phenyl)ethynyl)-6,7-dihydro-5H-cyclopenta[b]pyridin-7-ol]: the concentration for half-maximal inhibition (IC50) in assay [1] came to 27 nM; in assay [2] it was 0.8 nM.
As to `Nc1nccc2cnc(-c3cccc(C#CC4(O)CCCC4)c3)nc12` [Example 33, 1-[2-[3-(8-Aminopyrido[3,4-d]pyrimidin-2-yl)phenyl]ethynyl]cyclopentanol], the IC50 in assay [1] was 620 nM; in assay [2] it was 4.5 nM.
The matching figures for `CC(C)c1ncnc2ccc(-c3cccc(C#C[C@]4(O)CCN(C)C4=O)c3)nc12` [Example 272, (R)-3-Hydroxy-3-((3-(4-isopropylpyrido[3,2-d]pyrimidin-6-yl)phenyl)ethynyl)-1-methylpyrrolidin-2-one]: 1960 nM and 59 nM.
The matching figures for `CC(C)c1nc(-c2cccc(C#C[C@]3(O)CCN(C)C3=O)c2)nc2c(N)nccc12` [Example 98, (R)-3-((3-(8-Amino-4-isopropylpyrido[3,4-d]pyrimidin-2-yl)phenyl)ethynyl)-3-hydroxy-1-methylpyrrolidin-2-one]: 38 nM and 1.5 nM.
In the same order, the values of `C[C@@](O)(C#Cc1cccc(-c2ccc3ncnc(N)c3n2)c1)c1nccs1` [Example 93, (R)-4-(3-(4-Aminopyrido[3,2-d]pyrimidin-6-yl)phenyl)-2-(thiazol-2-yl)but-3-yn-2-ol] are 6.5 nM and not above 0.5 nM.
On to `Cc1nc(-c2cccc(C#Cc3ccn[nH]3)c2)nc2c(N)nccc12` [Example 107, 2-(3-((1H-Pyrazol-5-yl)ethynyl)phenyl)-4-methylpyrido[3,4-d]pyrimidin-8-amine], for which the results for the IC50 in assay [1] and in assay [2] were more than 5000 nM and 52 nM, respectively.
As for `CN1CC[C@@](O)(C#Cc2cccc(-c3ccc4nccc(N)c4n3)c2)C1=O` [Example 219, (R)-3-((3-(8-Amino-1,5-naphthyridin-2-yl)phenyl)ethynyl)-3-hydroxy-1-methylpyrrolidin-2-one], the values for the half-maximal inhibitory concentration (IC50) in assay [1] and in assay [2] were more than 5000 nM and 240 nM, respectively.
For the compound `Cc1nc(-c2cccc(C#C[C@]3(O)CCN(C)C3=O)c2)cc2c(N)ncnc12` [Example 136, (R)-3-[2-[3-(4-Amino-8-methyl-pyrido[3,4-d]pyrimidin-6-yl)phenyl]ethynyl]-3-hydroxy-1-methyl-pyrrolidin-2-one], the results for the IC50 in assay [1] and in assay [2] were 60 nM and 0.7 nM, respectively.
In the same order, the values of `CN1CC[C@@](O)(C#Cc2cccc(-c3ccc4ncnc(NC5CCC5)c4n3)c2)C1=O` [Example 236, (R)-3-((3-(4-(Cyclobutylamino)pyrido[3,2-d]pyrimidin-6-yl)phenyl)ethynyl)-3-hydroxy-1-methylpyrrolidin-2-one] are 1370 nM and 57 nM.
As for `CC(C)Cc1ccc(C#C[C@]2(O)CCN(C)C2=O)cc1-c1ncc2ccnc(N)c2n1` [Example 54, (R)-3-((3-(8-Aminopyrido[3,4-d]pyrimidin-2-yl)-4-isobutylphenyl)ethynyl)-3-hydroxy-1-methylpyrrolidin-2-one], the IC50 in assay [1] was found to be 280 nM; in assay [2] it was 10 nM.
In the same order, the values of `Cc1nc(N)c2nc(-c3cccc(C#C[C@]4(O)CCN(C)C4=O)c3)ncc2n1` [Example 14, (R)-3-((3-(8-Amino-6-methylpyrimido[5,4-d]pyrimidin-2-yl)phenyl)ethynyl)-3-hydroxy-1-methylpyrrolidin-2-one] are 18 nM and not above 0.5 nM.
In the same order, the values of `CN1CC[C@@](O)(C#Cc2cccc(-c3ccc4c(n3)c(N)nn4C)c2)C1=O` [Example 21, (R)-3-[2-[3-(3-Amino-1-methyl-pyrazolo[4,3-b]pyridin-5-yl)phenyl]ethynyl]-3-hydroxy-1-methyl-pyrrolidin-2-one] are 590 nM and 22 nM.
In the same order, the values of `Cc1nc(N)c2nc(-c3cccc(C#C[C@]4(O)CCN(C)C4=O)c3)c(C)cc2n1` [Example 178, (R)-3-((3-(4-Amino-2,7-dimethylpyrido[3,2-d]pyrimidin-6-yl)phenyl)ethynyl)-3-hydroxy-1-methylpyrrolidin-2-one] are 820 nM and 18 nM.
With `O=c1[nH]ccc2cnc(-c3cccc(C#CC4(O)CCc5cccnc54)c3)nc12` (stereo in doubt) [Example 47, (R)-2-[3-[2-(7-Hydroxy-5,6-dihydrocyclopenta[b]pyridin-7-yl)ethynyl]phenyl]-7H-pyrido[3,4-d]pyrimidin-8-one], the IC50 in assay [1] came to 1600 nM; in assay [2], 42 nM.
In the same order, the values of `CN1CC[C@@](O)(C#Cc2cccc(-c3ncc4cc[nH]c(=O)c4n3)c2)C1=O` [Example 30, (R)-2-[3-[2-(3-Hydroxy-1-methyl-2-oxo-pyrrolidin-3-yl)ethynyl]phenyl]-7H-pyrido[3,4-d]pyrimidin-8-one] are 1190 nM and 60 nM.
The matching figures for `Cc1nc(N)c2nc(-c3cccc(C#C[C@](C)(O)c4ncccn4)c3)ccc2n1` [Example 198, (S)-4-[3-(4-Amino-2-methyl-pyrido[3,2-d]pyrimidin-6-yl)phenyl]-2-pyrimidin-2-yl-but-3-yn-2-ol]: more than 5000 nM and 1310 nM.
In the same order, the values of `CN1CC[C@@](O)(C#Cc2cccc(-c3ncc4c(CC(C)(C)C)cnc(N)c4n3)c2)C1=O` [Example 151, (R)-3-((3-(8-Amino-5-neopentylpyrido[3,4-d]pyrimidin-2-yl)phenyl)ethynyl)-3-hydroxy-1-methylpyrrolidin-2-one] are 28 nM and 0.7 nM.
With `C[C@@](O)(C#Cc1cccc(-c2cnc3ncnc(N)c3c2)c1)c1nccs1` [Example 108, (R)-4-(3-(4-Aminopyrido[2,3-d]pyrimidin-6-yl)phenyl)-2-(thiazol-2-yl)but-3-yn-2-ol], the IC50 in assay [1] was more than 5000 nM; in assay [2], 7.6 nM.
The matching figures for `CN1CC[C@@](O)(C#Cc2cccc(-c3ncc4c(CN5CCCC5)cnc(N)c4n3)c2)C1=O` [Example 133, (R)-3-[2-[3-[8-Amino-5-(pyrrolidin-1-ylmethyl)pyrido[3,4-d]pyrimidin-2-yl]phenyl]ethynyl]-3-hydroxy-1-methyl-pyrrolidin-2-one]: 400 nM and 6.8 nM.
